In article PMC10016038, “Enhanced Endosomal Signaling and Desensitization of GLP-1R vs GIPR in Pancreatic Beta Cells” (Endocrinology, 2023):
“Also recorded” adds a separate entry of the source.

What was measured:
GIPR-NanoLuc [1] = experiment: Mini-Gs-Venus recruitment NanoBRET, GIPR; type: cell-based; conditions: 100 nM, n = 4
Method: Mini-Gs-Venus was a gift from Prof. Nevin Lambert, Augusta University, USA. INS-1 832/3 GLP-1R KO or GIPR KO cells were seeded in 12-well plates and co-transfected with 0.5 µg mini-Gs-Venus and either 0.5 µg GLP-1R- or GIPR-NanoLuc, respectively.
(§1) All NanoBiT and NanoBRET readings were obtained in a Flexstation 3 plate reader. Briefly, 24 hours after transfection, cells were detached, resuspended in NanoGlo Live Cell Reagent (Promega) with furimazine (1:20 dilution) and seeded into white 96-well half-area plates. […] Readings were normalized to well baseline and then to average vehicle-induced signal to establish the agonist-induced effect. AUCs from response curves were calculated for each agonist concentration and fitted to four-parameter curves using Prism 9 (GraphPad).
Figure 5. Beta cell GLP-1R vs GIPR G protein subtype and β-arrestin 2 recruitment characteristics. (A) Kinetics of Gαs, Gαq, Gαi, and β-arrestin 2 recruitment to the GLP-1R assessed by NanoBiT complementation assay in INS-1 832/3 GLP-1R KO cells transiently expressing GLP-1R-SmBiT and the corresponding mini-G protein subtype or β-arrestin 2. […] (B) Kinetics of Gαs, Gαq, Gαi, and β-arrestin 2 recruitment to the GIPR assessed by NanoBiT complementation assay in INS-1 832/3 GIPR KO cells transiently expressing GIPR-SmBiT and the corresponding mini-G protein subtype or β-arrestin 2. […]

GIPR-NanoLuc [2] = experiment: KRAS-Venus bystander NanoBRET (plasma membrane), GIPR; type: cell-based; conditions: n = 5
From the text: GLP-1R-NanoLuc was generated in house by polymerase chain reaction (PCR) cloning of the NanoLuciferase sequence from pcDNA3.1-ccdB-NanoLuc (a gift from Prof. Mikko Taipale; Addgene plasmid # 87067) onto the C-terminus end of the SNAP-GLP-1R vector (CisBio), followed by site-directed mutagenesis of the GLP-1R stop codon. GIPR-NanoLuc was subsequently cloned in house by exchanging the GLP-1R for the GIPR in the GLP-1R-NanoLuc construct. KRAS- and Rab5-Venus plasmids were a gift from Prof. Kevin Pfleger, University of Western Australia. The INS-1 832/3 GLP-1R KO and GIPR KO cells were seeded in 12-well plates and co-transfected with 0.2 µg KRAS-Venus and 0.1 µg GLP-1R- or GIPR-NanoLuc, respectively, or 0.5 µg Rab5-Venus and 0.1 µg GLP-1R- or GIPR-NanoLuc, respectively.
as §1
Figure 2. Endosomal vs plasma membrane localization of GLP-1R compared with GIPR in beta cells. […] Data are mean ± SEM, compared by paired t tests or two-way ANOVA with Sidak's test; *P < .05.

SNAP-tagged human GIPR = experiment: RICS receptor diffusion / clustering, SNAP-GIPR; type: cell-based; conditions: 5 minutes, 100 nM; n = 4
[3] = tested on: cAMP response in INS-1 832/3 cells; experiment: cAMP HTRF assay; type: cell-based, rat; conditions: 100 nM, log(Emax/EC50) in Fig. 7A, n = 5
From the text: Results were expressed as basal fold increase responses and fitted to 3-parameter curves using Prism 9 (GraphPad).
(§2) Figure 7. Functional analysis of GLP-1R vs GIPR signaling in beta cells. […] Data are mean ± SEM, compared by paired t tests; *P < .05; ns, nonsignificant.

SNAP-tagged human GLP-1R = SNAP-tagged human GLP-1R (Homo sapiens, UniProt P43220); experiment: DERET internalization assay, INS-1 832/3 SNAP-GLP-1R cells; type: cell-based; conditions: non-cognate agonist GIP
SNAP-tagged human GLP-1R, sequence (P43220 24-463): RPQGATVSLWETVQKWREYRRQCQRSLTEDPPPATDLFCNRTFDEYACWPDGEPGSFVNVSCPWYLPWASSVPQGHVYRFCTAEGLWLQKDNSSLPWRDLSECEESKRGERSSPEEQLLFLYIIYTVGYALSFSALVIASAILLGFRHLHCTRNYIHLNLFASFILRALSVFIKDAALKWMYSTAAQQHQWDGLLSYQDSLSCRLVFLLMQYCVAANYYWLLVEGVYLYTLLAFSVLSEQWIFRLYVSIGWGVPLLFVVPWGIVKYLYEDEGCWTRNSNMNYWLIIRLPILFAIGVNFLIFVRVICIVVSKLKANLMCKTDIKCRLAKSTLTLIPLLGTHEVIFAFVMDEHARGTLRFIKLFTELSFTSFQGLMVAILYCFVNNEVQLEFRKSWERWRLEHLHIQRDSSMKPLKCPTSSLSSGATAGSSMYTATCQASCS

GLP-1R-SmBiT = experiment: Mini-G protein/β-arrestin 2 recruitment NanoBiT, GLP-1R; type: cell-based; conditions: 100 nM GLP-1, 30 minutes, n = 5
From the text: Here the SmBiT was cloned in frame at the C-terminus of the GLP-1R and the GIPR by substitution of the Tango sequence on FLAG-tagged GLP-1R-Tango or GIPR-Tango (a gift from Prof. Bryan Roth, University of North Carolina, USA; Addgene plasmids #66291 and #66294), respectively. Mini-Gs, mini-Gq, and mini-Gi plasmids, tagged at the N-terminus with LgBiT, were a gift from Prof. Nevin Lambert, Medical College of Georgia, USA. For β-arrestin 2 recruitment assays, β-arrestin 2 fused at the N-terminus to LgBiT (LgBiT-β-arrestin 2; Promega, plasmid no. CS1603B118) was chosen as it has previously been used successfully with other class B GPCRs. […]
All NanoBiT and NanoBRET readings were obtained in a Flexstation 3 plate reader. […] Readings were normalized to well baseline and then to average vehicle-induced signal to establish the agonist-induced effect. AUCs from response curves were calculated for each agonist concentration and fitted to four-parameter curves using Prism 9 (GraphPad).
Figure 5. […] (A) Kinetics of Gαs, Gαq, Gαi, and β-arrestin 2 recruitment to the GLP-1R assessed by NanoBiT complementation assay in INS-1 832/3 GLP-1R KO cells transiently expressing GLP-1R-SmBiT and the corresponding mini-G protein subtype or β-arrestin 2. […]

[4] = tested on: INS-1 832/3 GLP-1R KO cells; experiment: Insulin secretion assay, GLP-1R KO cells; type: cell-based, rat; conditions: 100 nM, 11 mM glucose; n = 5
Method: At the end of the treatments, the supernatant containing the secreted insulin was collected, centrifuged at 1000g for 3 minutes, and transferred to a fresh tube. To determine total insulin content, cells were lysed using KRBH buffer + 1% w/v BSA + 1% v/v Triton X-100 (Sigma). The lysates were sonicated 3 × 10 seconds in a water bath sonicator and centrifuged at 10 000g for 10 minutes, and the supernatants collected. The samples were stored at −20 °C until the insulin concentration was determined using an Insulin Ultra-Sensitive HTRF Assay kit (62IN2PEG, Cisbio, Codolet, France) according to the manufacturer's instructions.
as §2

Question: For GIP(1-42), which “Gαs recruitment to the GIPR compared to the GLP-1R” value (GIPR-NanoLuc [1]) is on record?
Answer: Its value is “significantly reduced Gαs recruitment”.

Question: What about the “Plasma membrane retention of GIPR compared with GLP-1R” value (GIPR-NanoLuc [2]; INS-1 832/3 KO cells) of the same substance?
Answer: The value was “increased propensity for plasma membrane retention”.

Question: What about the “Maximal internalization response (Emax), GIPR vs GLP-1R” value (GIPR-NanoLuc [2]) of the same substance?
Answer: The value was “reduced maximal internalization responses”.

Question: And the “Potency (logEC50), GIPR vs GLP-1R” value (GIPR-NanoLuc [2])?
Answer: Its value is “no changes in potency”.

Question: And the “GIPR diffusion (RICS) upon stimulation” value (SNAP-tagged human GIPR)?
Answer: The value was “marked slowing of diffusion”.

Question: What about the “cAMP response, GIP compared with GLP-1, INS-1 832/3” value [3] of the same substance?
Answer: Its value is “near-significant increase; also recorded: tendency toward increased”.

Question: And the GLP-1R internalization (SNAP-tagged human GLP-1R)?
Answer: Its GLP-1R internalization is “negligible”.

Question: Which “Gαi coupling of GLP-1R” value (GLP-1R-SmBiT) does the source give for GLP-1(7-36)NH2 here?
Answer: Its value is “minimum coupling”.

Question: What about the “Gαs coupling of GLP-1R” value (GLP-1R-SmBiT) of the same substance?
Answer: The value was “preferentially coupled to Gαs”.

Question: What about the “Insulin secretion response in GLP-1R KO cells” value [4] of the same substance?
Answer: The value was “abolished”.
